From publication PMC3951388, “Structure-Function Relationship of a Plant NCS1 Member – Homology Modeling and Mutagenesis Identified Residues Critical for Substrate Specificity of PLUTO, a Nucleobase Transporter from Arabidopsis” (PLoS ONE, 2014)
Entries after “also recorded” stand apart in the source; their conditions may differ.

Experiments:
Nc1ncnc2nc[nH]c12 = assay: cells, lysate or membranes; conditions: corrected for uptake into uninduced cells, pH 7.0
PLUTO [1] = biological target: T1, PLUTO (Arabidopsis thaliana, UniProt Q9LZD0); assay type: cell-based; conditions: wild type PLUTO, 200 μM competitor; for Effect of competitor on guanine transport: 20 μM radiolabelled guanine; for Effect of competitor on guanine transport / Effect of competitor on uracil transport / Effect of competitor on adenine transport: 2 min; for Effect of competitor on uracil transport: 20 μM [14C]-uracil; for Effect of competitor on adenine transport: 20 μM radiolabelled adenine
T1 construct: Heterologous expression of the full length PLUTO Arabidopsis gene in Escherichia coli uraA insertion mutants; expressed in transfected cells; host or cells: Escherichia coli JD23420 (uraA transposon insertion strain), vector pTAC-MAT-Tag-2
T1 sequence (Q9LZD0 1-599): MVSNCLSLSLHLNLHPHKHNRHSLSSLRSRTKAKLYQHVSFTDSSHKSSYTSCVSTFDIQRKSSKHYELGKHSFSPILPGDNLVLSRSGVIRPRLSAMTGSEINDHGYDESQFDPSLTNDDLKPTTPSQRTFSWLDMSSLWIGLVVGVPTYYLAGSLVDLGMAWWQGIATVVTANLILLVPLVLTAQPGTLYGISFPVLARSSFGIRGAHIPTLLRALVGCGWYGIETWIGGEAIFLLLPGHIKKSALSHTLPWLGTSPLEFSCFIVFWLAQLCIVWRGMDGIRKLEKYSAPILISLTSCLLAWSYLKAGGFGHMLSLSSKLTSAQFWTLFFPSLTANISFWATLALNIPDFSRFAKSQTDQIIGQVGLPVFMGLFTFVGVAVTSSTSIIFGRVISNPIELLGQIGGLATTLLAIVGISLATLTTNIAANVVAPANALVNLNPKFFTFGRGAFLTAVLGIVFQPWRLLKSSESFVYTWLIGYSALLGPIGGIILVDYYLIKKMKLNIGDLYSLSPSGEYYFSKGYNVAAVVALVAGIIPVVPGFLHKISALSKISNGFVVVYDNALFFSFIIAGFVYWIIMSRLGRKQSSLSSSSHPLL
From the text: (§1) For the uptake experiments, PLUTO was heterologously expressed in an Escherichia coli transposon insertion strain lacking the endogenous uracil permease uraA (JD23420), obtained from the National Institute of Genetics (Shizuoka, Japan; http://www.shigen.nig.ac.jp/ecoli/strain/top/top.jsp). PLUTO and site directed mutants were cloned in the bacterial expression vector pTAC-MAT-Tag-2 (Sigma Aldrich, Deisenhofen, Germany) as previously described. After the transformation of the cells with the PLUTO expression plasmids, the cells were grown at 37°C and 170 rpm in YT medium containing ampicillin and kanamycin. The expression of PLUTO and site directed mutants was initiated by the addition of isopropyl β-D-thiogalactopyranosid (IPTG) with a final concentration of 0.02% at an OD600 of 0.5. The cells were grown for 2 h after induction, collected by centrifugation for 5 min at 4500 g and 4°C and resuspended with potassium phosphate buffer (50 mM, pH 7.0) to an OD600 of 5. The cells were stored on ice until use.
(§2) The uptake of nucleobases with concentrations of 20 μM was performed at 37°C and permanent shaking at 200 rpm. For the analysis of PLUTO mutants the cells were incubated for 5 min (2 min for competition studies) and the uptake was terminated by vacuum filtration through a membrane filter (0.45 μm pore size; Whatman). The cells were washed three times with 1 ml ice cold potassium phosphate buffer (50 mM, pH 7.0) to remove unimported nucleobases and the radioactivity was quantified in a Packard Tricarb 2500 scintillation counter after the addition of 4 mL scintillation cocktail (Roth). For the competition studies, all competitors were added with ten-fold excess (200 μM) to the uptake medium containing 20 μM radiolabelled nucleobases.

PLUTO W223A = biological target: T2, PLUTO W223A (Arabidopsis thaliana, UniProt Q9LZD0, W223A); assay type: cell-based; conditions: mutant W223A, 200 μM competitor; for Effect of competitor on guanine transport: 20 μM guanine; for Effect of competitor on uracil transport: 20 μM uracil
T2 construct: Heterologous expression of the full length PLUTO Arabidopsis gene in Escherichia coli uraA insertion mutants; expressed in transfected cells; host or cells: Escherichia coli JD23420 (uraA transposon insertion strain), vector pTAC-MAT-Tag-2
From the text: as §1
(§3) Site directed mutagenesis was achieved by using the QuickChange II-E Site directed mutagenesis kit (Stratagene) according to the manufacturer's instructions.
as §2

O=c1cc[nH]c(=O)[nH]1 = assay: cells, lysate or membranes; conditions: corrected for uptake into uninduced cells, pH 7.0
PLUTO [2] = biological target: T1, PLUTO; assay: Radiolabelled nucleobase uptake, wild type PLUTO expressed in E. coli lacking uraA; assay type: cell-based; conditions: for Net import: wild type PLUTO (control), 5 min, corrected for uninduced cells
From the text: The cells were stored on ice until use.

PLUTO E227Q T425A = biological target: T3, PLUTO E227Q T425A (Arabidopsis thaliana, UniProt Q9LZD0, E227Q/T425A); assay: Radiolabelled nucleobase uptake, PLUTO mutant in E. coli lacking uraA; assay type: cell-based; conditions: 20 μM, 5 min
T3 construct: Heterologous expression of the full length PLUTO Arabidopsis gene in Escherichia coli uraA insertion mutants; expressed in transfected cells; host or cells: Escherichia coli JD23420 (uraA transposon insertion strain), vector pTAC-MAT-Tag-2
From the text: as §1, §3, §2

PLUTO E227Q G147Q = biological target: T4, PLUTO E227Q G147Q (Arabidopsis thaliana, UniProt Q9LZD0, E227Q/G147Q); assay: as above; assay type: cell-based; conditions: 20 μM, 5 min
T4 construct: Heterologous expression of the full length PLUTO Arabidopsis gene in Escherichia coli uraA insertion mutants; expressed in transfected cells; host or cells: Escherichia coli JD23420 (uraA transposon insertion strain), vector pTAC-MAT-Tag-2
From the text: as §1, §3, §2

PLUTO E227K = biological target: T5, PLUTO E227K (Arabidopsis thaliana, UniProt Q9LZD0, E227K); assay: as above; assay type: cell-based; conditions: 20 μM, 5 min
T5 construct: Heterologous expression of the full length PLUTO Arabidopsis gene in Escherichia coli uraA insertion mutants; expressed in transfected cells; host or cells: Escherichia coli JD23420 (uraA transposon insertion strain), vector pTAC-MAT-Tag-2
From the text: as §1, §3, §2

PLUTO [3] = biological target: T1, PLUTO; conditions: full length PLUTO in E. coli uraA insertion mutants; ref [4]; cited from earlier work
PLUTO E227Q = PLUTO E227Q (Arabidopsis thaliana, UniProt Q9LZD0, E227Q); assay: Radiolabelled nucleobase uptake, PLUTO mutant in E. coli lacking uraA; conditions: 20 μM, 5 min
From the text: as §1, §3, §2

PLUTO E227A = PLUTO E227A (Arabidopsis thaliana, UniProt Q9LZD0, E227A); assay: as above; conditions: 20 μM, 5 min
From the text: as §1, §3, §2

PLUTO G147Q = PLUTO G147Q (Arabidopsis thaliana, UniProt Q9LZD0, G147Q); conditions: mutant G147Q; 20 μM; 5 min
From the text: as §1, §3, §2

PLUTO E227D = PLUTO E227D (Arabidopsis thaliana, UniProt Q9LZD0, E227D); conditions: mutant E227D; 20 μM; 5 min
From the text: as §1, §3, §2

Nc1nc2nc[nH]c2c(=O)[nH]1 = assay: cells, lysate or membranes; conditions: pH 7.0; 37.0 °C
PLUTO F341A = PLUTO F341A (Arabidopsis thaliana, UniProt Q9LZD0, F341A); conditions: mutant F341A; 20 μM guanine, 200 μM competitor
From the text: as §1, §3, §2

PLUTO I226A = PLUTO I226A (Arabidopsis thaliana, UniProt Q9LZD0, I226A); conditions: mutant I226A; 20 μM guanine, 200 μM competitor
From the text: as §1, §3, §2

PLUTO V145A G147Q = PLUTO V145A G147Q (Arabidopsis thaliana, UniProt Q9LZD0, G147Q/V145A); assay: Radiolabelled nucleobase uptake, PLUTO mutant in E. coli lacking uraA; conditions: 20 μM, 5 min
From the text: as §1, §3, §2

T4 sequence (Q9LZD0 whole entry G147Q/E227Q): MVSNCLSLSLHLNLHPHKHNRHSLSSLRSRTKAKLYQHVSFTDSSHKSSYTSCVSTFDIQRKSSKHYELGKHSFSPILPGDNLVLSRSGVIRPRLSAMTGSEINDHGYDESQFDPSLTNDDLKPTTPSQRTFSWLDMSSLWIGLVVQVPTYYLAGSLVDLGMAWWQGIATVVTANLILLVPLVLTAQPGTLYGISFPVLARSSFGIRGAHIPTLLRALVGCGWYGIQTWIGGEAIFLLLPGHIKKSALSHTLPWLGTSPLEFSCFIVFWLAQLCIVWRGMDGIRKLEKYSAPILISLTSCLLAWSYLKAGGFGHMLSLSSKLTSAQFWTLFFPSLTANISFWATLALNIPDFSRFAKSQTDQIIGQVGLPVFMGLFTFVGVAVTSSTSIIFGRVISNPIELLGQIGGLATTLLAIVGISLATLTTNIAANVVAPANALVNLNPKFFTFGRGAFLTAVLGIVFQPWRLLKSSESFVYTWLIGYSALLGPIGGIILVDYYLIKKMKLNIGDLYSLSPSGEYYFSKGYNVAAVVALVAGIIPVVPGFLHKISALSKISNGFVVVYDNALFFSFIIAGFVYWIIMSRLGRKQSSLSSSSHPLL
T2 sequence (Q9LZD0 whole entry W223A): as the sequence (Q9LZD0 whole entry G147Q/E227Q) above, with Q147G, W223A, Q227E counted along it
Chain of PLUTO G147Q (Q9LZD0 whole entry G147Q): as the sequence (Q9LZD0 whole entry G147Q/E227Q) above, with Q227E counted along it
T5 sequence (Q9LZD0 whole entry E227K): as the sequence (Q9LZD0 whole entry G147Q/E227Q) above, with Q147G, Q227K counted along it
Chain of PLUTO E227D (Q9LZD0 whole entry E227D): as the sequence (Q9LZD0 whole entry G147Q/E227Q) above, with Q147G, Q227D counted along it
Chain of PLUTO E227A (Q9LZD0 whole entry E227A): as the sequence (Q9LZD0 whole entry G147Q/E227Q) above, with Q147G, Q227A counted along it
Chain of PLUTO E227Q (Q9LZD0 whole entry E227Q): as the sequence (Q9LZD0 whole entry G147Q/E227Q) above, with Q147G counted along it
Chain of PLUTO V145A G147Q (Q9LZD0 whole entry V145A/G147Q): as the sequence (Q9LZD0 whole entry G147Q/E227Q) above, with V145A, Q227E counted along it
T3 sequence (Q9LZD0 whole entry E227Q/T425A): as the sequence (Q9LZD0 whole entry G147Q/E227Q) above, with Q147G, T425A counted along it
Chain of PLUTO F341A (Q9LZD0 whole entry F341A): as the sequence (Q9LZD0 whole entry G147Q/E227Q) above, with Q147G, Q227E, F341A counted along it
Chain of PLUTO I226A (Q9LZD0 whole entry I226A): as the sequence (Q9LZD0 whole entry G147Q/E227Q) above, with Q147G, I226A, Q227E counted along it

In the case of “PLUTO E227Q (Arabidopsis thaliana; E227Q)”, the Km (Nc1ncnc2nc[nH]c12; other: mutant E227Q) is reported as 0.22 (±0.05) μM.
With `O=c1[nH]c(=O)c2[nH]c(=O)[nH]c2[nH]1` [uric acid] the “Effect of competitor on guanine transport” value (PLUTO [1]) was “affected” and the “Effect of competitor on guanine transport” value (PLUTO W223A) was “no longer able to inhibit”.
In the case of “PLUTO G147Q (Arabidopsis thaliana; G147Q)”, the Km (Nc1ncnc2nc[nH]c12; other: mutant G147Q) is reported as 0.68 (±0.20) μM and the Km (O=c1cc[nH]c(=O)[nH]1; other: mutant G147Q) is reported as 36.07 (±2,32) μM.
With `O=C(O)c1cc(=O)[nH]c(=O)[nH]1` [orotate] the “Transport substrate status in direct uptake studies” value (PLUTO [2]; wild type PLUTO) was “not identified as transport substrates” and the “Effect of competitor on uracil transport” value (PLUTO [1]) was “affected”.
For “PLUTO E227A (Arabidopsis thaliana; E227A)”, the Km (Nc1ncnc2nc[nH]c12; other: mutant E227A) was 0.21 (±0.05) μM.
With `Nc1ncnc2[nH]cnc12` [adenine] the “Residual transport compared to controls” value (PLUTO E227Q T425A) was 32%, the “Residual transport compared to controls” value (PLUTO E227Q G147Q) was at most 16% and the “Residual transport compared to controls” value (PLUTO E227K) was 7%. The Apparent affinity (PLUTO [3]) was 0.4 µM, the “Increase of transport versus control” value (PLUTO E227Q) was 21% and the “Residual transport compared to controls” value (PLUTO E227A) was 26%. The “Effect of competitor on uracil transport” value (PLUTO [1]) was “remained unaffected”, the “Effect of competitor on guanine transport” value (PLUTO [1]) was “marked inhibitory effects” and the “Impairment of transport versus control” value (PLUTO G147Q) was 45%. For the same compound, the Transport (PLUTO E227D) was 2.1 nmol mg^−1 protein and the “Transport rate relative to controls” value (PLUTO E227D) was 64%.
With `O=C1NC(=O)C(Cc2ccccc2)N1` (stereo not shown) [benzyl hydantoin] the “Transport by PLUTO judged by competitive binding analysis” value (PLUTO [1]) was “no indication for a transport”.
For “PLUTO E227D (Arabidopsis thaliana; E227D)”, the Km (Nc1ncnc2nc[nH]c12; other: mutant E227D) was 0.97 (±0.21) μM, the Km (O=c1cc[nH]c(=O)[nH]1; other: mutant E227D) was 5.18 (±1.21) μM and the Km (Nc1nc2nc[nH]c2c(=O)[nH]1) was 3.70 (±0.72) μM.
With `O=c1[nH]cnc2nc[nH]c12` [hypoxanthine] the “Effect of competitor on guanine transport” value (PLUTO [1]) was “affected; also recorded: marked inhibition”, the “Effect of competitor on guanine transport” value (PLUTO W223A) was “no longer able to inhibit” and the “Effect of competitor on guanine transport” value (PLUTO F341A) was “inhibited”. The “Effect of competitor on guanine transport” value (PLUTO I226A) was “inhibited”.
For `Cc1c[nH]c(=O)[nH]c1=O` [thymine], the “Transport substrate status in direct uptake studies” value (PLUTO [2]; wild type PLUTO) was “not identified as transport substrates”, the “Effect of competitor on uracil transport” value (PLUTO [1]) was “affected” and the “Effect of competitor on uracil transport” value (PLUTO W223A) was “inhibited”.
For `Nc1nc2nc[nH]c2c(=O)[nH]1` [guanine], the “Residual transport compared to controls” value (PLUTO E227Q T425A) was 25%, the “Residual transport compared to controls” value (PLUTO E227Q G147Q) was at most 16% and the “Residual transport compared to controls” value (PLUTO E227K) was 11%. For the same compound, the Net import (PLUTO [2]; 20 μM) was 3.4 nmol mg^−1 protein, the Apparent affinity (PLUTO [3]) was 6.3 µM and the “Residual transport compared to controls” value (PLUTO E227Q) was 21%. For the same compound, the “Residual transport compared to controls” value (PLUTO E227A) was 4%, the “Residual transport relative to controls” value (PLUTO V145A G147Q) was 12% and the “Effect of competitor on uracil transport” value (PLUTO [1]) was “reduced”. The “Effect of competitor on adenine transport” value (PLUTO [1]) was “not influenced”, the “Transport activity (in words)” value (PLUTO G147Q) was “not significantly altered” and the Transport (PLUTO E227D) was 0.86 nmol mg^−1 protein.
In the case of “PLUTO V145A G147Q (Arabidopsis thaliana; G147Q/V145A)”, the Km (Nc1ncnc2nc[nH]c12; other: mutant V145A G147Q) is reported as 0.81 (±0.17) μM and the Km (O=c1cc[nH]c(=O)[nH]1; other: mutant V145A G147Q) is reported as 20.15 (±3.73) μM.
In the case of `Cc1ncc(C[n+]2csc(CCO)c2C)c(N)n1` [thiamine], the “Effect of competitor on uracil transport” value (PLUTO W223A) is reported as “inhibited”.
With `O=c1cc[nH]c(=O)[nH]1` [uracil] the “Residual transport compared to controls” value (PLUTO E227Q G147Q) was at most 16%, the “Transport activity (in words)” value (PLUTO E227K) was “completely extinguished” and the Net import (PLUTO [2]; 20 μM) was 3.2 nmol mg^−1 protein. The “Import into induced E. coli cells” value (PLUTO [2]; wild type PLUTO, 20 μM, 5 min incubation, not corrected for uninduced cells) was 3.7±0.28 nmol mg^−1 protein, the Apparent affinity (PLUTO [3]) was 16.4 µM and the “Transport activity (in words)” value (PLUTO E227Q) was “completely extinguished”. The “Transport activity (in words)” value (PLUTO E227A) was “completely extinguished”, the “Increase of transport versus control” value (PLUTO V145A G147Q) was 50% and the “Effect of competitor on adenine transport” value (PLUTO [1]) was “not influenced”. The “Effect of competitor on guanine transport” value (PLUTO [1]) was “marked inhibitory effects”, the “Transport activity (in words)” value (PLUTO G147Q) was “not significantly altered” and the Transport (PLUTO E227D) was 0.53 nmol mg^−1 protein.
In the case of `O=C1CCNC(=O)N1` [dihydrouracil], the “Effect of competitor on uracil transport” value (PLUTO W223A) is reported as “inhibited”.
